One assay addresses T1, aldose reductase (Bos taurus, UniProt P16116).
T1 construct: preparation of the enzyme from bovine lens; from tissue; host or cells: bovine lens
As to the kind of experiment: in vitro aldose reductase inhibition (modified Hayman and Kinoshita procedure; enzyme from bovine lens). It is filed as biochemical. As to conditions: 10^-5 molar, read-out: Percent Inhibition at Different Molar Concentrations (in vitro). As for the experimental part:
In the present case the procedure of Hayman and Kinoshita is modified in that the final chromatography step is omitted in the preparation of the enzyme from bovine lens.
The following results were obtained when the compounds of this invention were evaluated in the above in vitro test (the results for 1,3-dioxo-1H-benz[de]isoquinoline-2(3H)-acetic acid, see U.S. Pat. No. 3,821,383 cited hereinbefore, also is included for comparative purposes): […]
Turning to `O=C(O)CN1C(=O)c2cccc3c(Cl)ccc(c23)C1=O` [Example 2, 6-Chloro-1,3-dioxo-1H-benz[de]isoquinoline-2(3H)-acetic acid], the inhibition at 10 µM is 86%.

As to `O=C(O)CN1C(=O)c2cccc3cccc(c23)C1=O` [1,3-Dioxo-1H-benz[de]isoquinoline-2(3H)-acetic acid, reference compound], the inhibition at 10 µM was found to be 74%.

Turning to `O=C(O)CN1C(=O)c2cccc3c(Sc4ccccc4)ccc(c23)C1=O` [Example 3, 1,3-Dioxo-6-(phenylthio)-1H-benz[de]isoquinoline-2(3H)-acetic acid], the inhibition at 10 µM amounted to 92%.

For the molecule `CCCCCCCCCCSc1ccc2c3c(cccc13)C(=O)N(CC(=O)O)C2=O` [Example 5, 1,3-Dioxo-6-(decylthio)-1H-benz[de]isoquinoline-2(3H)-acetic acid], the inhibition at 10 µM amounted to 60%.

For `O=C(O)CN1C(=O)c2cccc3c(Sc4ccccc4C(=O)O)ccc(c23)C1=O` [Example 4, 1,3-Dioxo-6-[(2-carboxyphenyl)thio]-1H-benz[de]isoquinoline-2(3H)-acetic acid], the inhibition at 10 µM is 91%.

As for `O=C(O)CN1C(=O)c2cccc3c(C(=O)c4ccccc4)ccc(c23)C1=O` [Example 1, 6-Benzoyl-1,3-dioxo-1H-benz[de]isoquinoline-2(3H)-acetic acid], the inhibition at 10 µM came out at 85%.

The assay is the same for the next values; noted with them: 10^-6 molar, read-out: Percent Inhibition at Different Molar Concentrations (in vitro).
In the case of `O=C(O)CN1C(=O)c2cccc3c(Cl)ccc(c23)C1=O` [Example 2, 6-Chloro-1,3-dioxo-1H-benz[de]isoquinoline-2(3H)-acetic acid], the inhibition at 1 µM came to 42%.

Regarding `O=C(O)CN1C(=O)c2cccc3cccc(c23)C1=O` [1,3-Dioxo-1H-benz[de]isoquinoline-2(3H)-acetic acid, reference compound], the inhibition at 1 µM was 32%.

As for `O=C(O)CN1C(=O)c2cccc3c(Sc4ccccc4)ccc(c23)C1=O` [Example 3, 1,3-Dioxo-6-(phenylthio)-1H-benz[de]isoquinoline-2(3H)-acetic acid], the inhibition at 1 µM came to 71%.

Regarding `CCCCCCCCCCSc1ccc2c3c(cccc13)C(=O)N(CC(=O)O)C2=O` [Example 5, 1,3-Dioxo-6-(decylthio)-1H-benz[de]isoquinoline-2(3H)-acetic acid], the inhibition at 1 µM worked out at 33%.

With `O=C(O)CN1C(=O)c2cccc3c(Sc4ccccc4C(=O)O)ccc(c23)C1=O` [Example 4, 1,3-Dioxo-6-[(2-carboxyphenyl)thio]-1H-benz[de]isoquinoline-2(3H)-acetic acid], the inhibition at 1 µM worked out at 61%.

On to `O=C(O)CN1C(=O)c2cccc3c(C(=O)c4ccccc4)ccc(c23)C1=O` [Example 1, 6-Benzoyl-1,3-dioxo-1H-benz[de]isoquinoline-2(3H)-acetic acid], for which the inhibition at 1 µM amounted to 65%.

Staying with this assay, now noted: 10^-7 molar, read-out: Percent Inhibition at Different Molar Concentrations (in vitro).
For the molecule `O=C(O)CN1C(=O)c2cccc3c(Cl)ccc(c23)C1=O` [Example 2, 6-Chloro-1,3-dioxo-1H-benz[de]isoquinoline-2(3H)-acetic acid], the inhibition at 0.1 µM worked out at 9%.

For `O=C(O)CN1C(=O)c2cccc3cccc(c23)C1=O` [1,3-Dioxo-1H-benz[de]isoquinoline-2(3H)-acetic acid, reference compound], the inhibition at 0.1 µM turned out to be 5%.

For `O=C(O)CN1C(=O)c2cccc3c(Sc4ccccc4)ccc(c23)C1=O` [Example 3, 1,3-Dioxo-6-(phenylthio)-1H-benz[de]isoquinoline-2(3H)-acetic acid], the inhibition at 0.1 µM was 22%.

In the case of `CCCCCCCCCCSc1ccc2c3c(cccc13)C(=O)N(CC(=O)O)C2=O` [Example 5, 1,3-Dioxo-6-(decylthio)-1H-benz[de]isoquinoline-2(3H)-acetic acid], the inhibition at 0.1 µM was found to be 26%.

`O=C(O)CN1C(=O)c2cccc3c(Sc4ccccc4C(=O)O)ccc(c23)C1=O` [Example 4, 1,3-Dioxo-6-[(2-carboxyphenyl)thio]-1H-benz[de]isoquinoline-2(3H)-acetic acid]: the inhibition at 0.1 µM turned out to be 17%.

Take `O=C(O)CN1C(=O)c2cccc3c(C(=O)c4ccccc4)ccc(c23)C1=O` [Example 1, 6-Benzoyl-1,3-dioxo-1H-benz[de]isoquinoline-2(3H)-acetic acid]: the inhibition at 0.1 µM amounted to 22%.

A further assay deals with aldose reductase.
Experiment: not given
As to conditions: cited from earlier work.
On to `O=C(O)CN1C(=O)c2cccc3cccc(c23)C1=O` [1,3-Dioxo-1H-benz[de]isoquinoline-2(3H)-acetic acid, reference compound], for which the “inhibitor of aldose reductase” value is on record as “effective inhibitor of aldose reductase”.

The next assay has as its system insulin secretion.
Experiment: not given
Conditions: cited from earlier work.
As for `O=C(O)CN1C(=O)c2cccc3cccc(c23)C1=O` [1,3-Dioxo-1H-benz[de]isoquinoline-2(3H)-acetic acid, reference compound], the insulin secretion result is “stimulates insulin secretion”.

A further assay has as its system glucagon.
Experiment: not given
Conditions: cited from earlier work.
In the case of `O=C(O)CN1C(=O)c2cccc3cccc(c23)C1=O` [1,3-Dioxo-1H-benz[de]isoquinoline-2(3H)-acetic acid, reference compound], the “secretion of excessive amounts of glucagon” value was “prevents or decreases the secretion of excessive amounts of glucagon”.

The values are drawn from US4254109A, “1H-Benz[de]isoquinoline-2(3H)-acetic acid derivatives” (Ayerst, McKenna & Harrison Inc., priority 1979, dated 1981).
